For one assay, the target named is T1, human V1a receptor (Homo sapiens, UniProt P37288).
T1 construct: expressed in transfected cells; host or cells: CHO K1 (Chinese hamster ovary), also stably transfected with a modified aequorin
Nature of the assay: Cellular in vitro assay for vasopressin receptor activity, V1a receptor cell line (aequorin luminescence). The class given is cell-based. The conditions noted are these: for IC50: CHO cell line transfected with human V1a receptor, [Arg8]-vasopressin at EC50 concentration, read-out: IC50 hV1a; for ratio IC50 hV2/hV1a: selectivity ratio of the IC50 values hV2/hV1a. In outline: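 Recombinant CHO K1 cells stably expressing human V1a receptor and aequorin, loaded with coelenterazine, were exposed to test compounds for 10 minutes before [Arg^8]-vasopressin at EC50 concentration. Calcium-triggered luminescence was measured immediately, giving IC50 values.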

Another assay addresses T2, human V2 receptor (Homo sapiens, UniProt P30518).
T2 construct: expressed in transfected cells; host or cells: CHO K1 (Chinese hamster ovary) expressing firefly luciferase under a CRE-responsive promoter
Kind of assay: Cellular in vitro assay for vasopressin receptor activity, V2 receptor cell line (CRE-luciferase). The conditions noted are these: CHO cell line transfected with human V2 receptor; [Arg8]-vasopressin at EC50 concentration; read-out: IC50 hV2. The class given is cell-based. In short, it runs like this: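 CHO K1 cells stably expressing human V2 receptor with CRE-driven firefly luciferase, plated the day before. Test compounds at various concentrations added together with [Arg^8]-vasopressin at EC50 concentration, 3 h at 37° C, 5% CO2. Luminescence read after Triton lysis and luciferin addition; IC50 values reported.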

Where a name gives a salt, the structure may show the parent alone.

T1 sequence (P37288 whole entry): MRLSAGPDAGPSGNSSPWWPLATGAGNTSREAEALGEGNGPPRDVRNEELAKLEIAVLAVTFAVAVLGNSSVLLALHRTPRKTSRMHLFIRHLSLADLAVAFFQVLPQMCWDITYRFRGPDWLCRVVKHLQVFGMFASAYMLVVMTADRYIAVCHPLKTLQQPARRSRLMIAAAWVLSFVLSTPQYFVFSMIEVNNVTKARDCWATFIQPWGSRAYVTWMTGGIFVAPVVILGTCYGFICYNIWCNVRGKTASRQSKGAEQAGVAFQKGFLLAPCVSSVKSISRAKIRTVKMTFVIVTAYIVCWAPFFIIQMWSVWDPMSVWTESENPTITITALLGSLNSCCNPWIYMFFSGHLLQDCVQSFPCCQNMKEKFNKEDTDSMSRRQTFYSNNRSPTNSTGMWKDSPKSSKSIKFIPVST
T2 sequence (P30518 whole entry): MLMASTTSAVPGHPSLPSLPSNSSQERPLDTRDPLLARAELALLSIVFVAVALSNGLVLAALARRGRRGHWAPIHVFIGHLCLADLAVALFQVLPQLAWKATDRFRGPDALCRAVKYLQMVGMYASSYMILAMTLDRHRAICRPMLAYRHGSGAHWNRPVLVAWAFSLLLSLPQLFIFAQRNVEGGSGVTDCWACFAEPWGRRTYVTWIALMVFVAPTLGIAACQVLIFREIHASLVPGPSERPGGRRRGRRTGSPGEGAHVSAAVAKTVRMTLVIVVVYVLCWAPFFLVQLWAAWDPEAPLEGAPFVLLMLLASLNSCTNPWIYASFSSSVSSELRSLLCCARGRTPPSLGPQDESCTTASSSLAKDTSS

By IC50 is commonly meant the point on the concentration scale where inhibition reaches its midpoint. `CC(C)(C)NC(=O)c1nc(Cn2nc(-c3ccc(Cl)cc3)n(C[C@H](O)C(F)(F)F)c2=O)nn1-c1ccccc1Cl` [Example 28, N-tert-Butyl-1-(2-chlorophenyl)-3-({3-(4-chlorophenyl)-5-oxo-4-[(2S)-3,3,3-trifluoro-2-hydroxypropyl]-4,5-dihydro-1H-1,2,4-triazol-1-yl}methyl)-1H-1,2,4-triazole-5-carboxamide]: the IC50 at human V1a receptor came out at 2.95 nM; on human V2 receptor, 26 nM. The “ratio IC50 hV2/hV1a” value on human V1a receptor came out at 8.8.
Taken in the same sequence, the figures for `CC(C)(C)NC(=O)c1nc(Cn2nc(-c3ccc(Cl)cc3)n(C[C@H](O)C(F)(F)F)c2=O)nn1-c1ncccc1OC(F)(F)F` [Example 29, N-tert-Butyl-3-({3-(4-chlorophenyl)-5-oxo-4-[(2S)-3,3,3-trifluoro-2-hydroxypropyl]-4,5-dihydro-1H-1,2,4-triazol-1-yl}methyl)-1-[3-(trifluoromethoxy)pyridin-2-yl]-1H-1,2,4-triazole-5-carboxamide] were 19.5 nM, 635 nM and 32.6.
As to `O=C(c1nc(Cn2nc(-c3ccc(Cl)cc3)n(C[C@H](O)C(F)(F)F)c2=O)nn1-c1ccccc1Cl)N1CCOCC1` [Example 30, 5-(4-Chlorophenyl)-2-{[1-(2-chlorophenyl)-5-(morpholin-4-ylcarbonyl)-1H-1,2,4-triazol-3-yl]methyl}-4-[(2S)-3,3,3-trifluoro-2-hydroxypropyl]-2,4-dihydro-3H-1,2,4-triazol-3-one], the IC50 on human V1a receptor came to 1.01 nM; on human V2 receptor it was 29.3 nM. Also, at human V1a receptor, the “ratio IC50 hV2/hV1a” value came out at 29.0.
Taken in the same sequence, the figures for `O=C1CN(C(=O)c2nc(Cn3nc(-c4ccc(Cl)cc4)n(C[C@H](O)C(F)(F)F)c3=O)nn2-c2ccccc2Cl)CCN1` [Example 31, 4-{[1-(2-Chlorophenyl)-3-({3-(4-chlorophenyl)-5-oxo-4-[(2S)-3,3,3-trifluoro-2-hydroxypropyl]-4,5-dihydro-1H-1,2,4-triazol-1-yl}methyl)-1H-1,2,4-triazol-5-yl]carbonyl}piperazin-2-one] were 5.7 nM, 34 nM and 6.0.
For the molecule `O=C(NCC1(O)CC1)c1nc(Cn2nc(-c3ccc(Cl)cc3)n(C[C@H](O)C(F)(F)F)c2=O)nn1-c1ccccc1Cl` [Example 32, 1-(2-Chlorophenyl)-3-({3-(4-chlorophenyl)-5-oxo-4-[(2S)-3,3,3-trifluoro-2-hydroxypropyl]-4,5-dihydro-1H-1,2,4-triazol-1-yl}methyl)-N-[(1-hydroxycyclopropyl)methyl]-1H-1,2,4-triazole-5-carboxamide], at human V1a receptor, the IC50 was 1.2 nM and the “ratio IC50 hV2/hV1a” value is on record as 6.2. For the same molecule, the IC50 on human V2 receptor was found to be 7.43 nM.
On to `O=C(NC1CC1)c1nc(Cn2nc(-c3ccc(Cl)cc3)n(C[C@H](O)C(F)(F)F)c2=O)nn1-c1ccccc1Cl` [Example 33, 1-(2-Chlorophenyl)-3-({3-(4-chlorophenyl)-5-oxo-4-[(2S)-3,3,3-trifluoro-2-hydroxypropyl]-4,5-dihydro-1H-1,2,4-triazol-1-yl}methyl)-N-cyclopropyl-1H-1,2,4-triazole-5-carboxamide], for which the values for the IC50 on human V1a receptor and at human V2 receptor were 1.32 nM and 9.77 nM, respectively. Besides, the “ratio IC50 hV2/hV1a” value at human V1a receptor is on record as 7.4.
Consider `CNC(=O)c1nc(Cn2nc(-c3ccc(Cl)cc3)n(C[C@H](O)C(F)(F)F)c2=O)nn1-c1cccc(Cl)c1` [Example 34, 1-(3-Chlorophenyl)-3-({3-(4-chlorophenyl)-5-oxo-4-[(2S)-3,3,3-trifluoro-2-hydroxypropyl]-4,5-dihydro-1H-1,2,4-triazol-1-yl}methyl)-N-methyl-1H-1,2,4-triazole-5-carboxamide], for which, at human V1a receptor, the IC50 was 34.6 nM and the “ratio IC50 hV2/hV1a” value is given as 0.2. On human V2 receptor, the IC50 was 6.95 nM.
Taken in the same sequence, the figures for `CN(C)C(=O)c1nc(Cn2nc(-c3ccc(Cl)cc3)n(C[C@H](O)C(F)(F)F)c2=O)nn1-c1cccc(Cl)c1` [Example 35, 1-(3-Chlorophenyl)-3-({3-(4-chlorophenyl)-5-oxo-4-[(2S)-3,3,3-trifluoro-2-hydroxypropyl]-4,5-dihydro-1H-1,2,4-triazol-1-yl}methyl)-N,N-dimethyl-1H-1,2,4-triazole-5-carboxamide] were 4.92 nM, 0.7 and 3.64 nM.
With `O=C(c1nc(Cn2nc(-c3ccc(Cl)cc3)n(C[C@H](O)C(F)(F)F)c2=O)nn1-c1cccc(Cl)c1)N1CCOCC1` [Example 36, 5-(4-Chlorophenyl)-2-{[1-(3-chlorophenyl)-5-(morpholin-4-ylcarbonyl)-1H-1,2,4-triazol-3-yl]methyl}-4-[(2S)-3,3,3-trifluoro-2-hydroxypropyl]-2,4-dihydro-3H-1,2,4-triazol-3-one], at human V1a receptor, the IC50 worked out at 18.3 nM and the “ratio IC50 hV2/hV1a” value came to 0.7. The IC50 on human V2 receptor came out at 12.8 nM.
On to `COCCNC(=O)c1nc(Cn2nc(-c3ccc(Cl)cc3)n(C[C@H](O)C(F)(F)F)c2=O)nn1-c1cccc(F)c1` [Example 37, 3-({3-(4-Chlorophenyl)-5-oxo-4-[(2S)-3,3,3-trifluoro-2-hydroxypropyl]-4,5-dihydro-1H-1,2,4-triazol-1-yl}methyl)-1-(3-fluorophenyl)-N-(2-methoxyethyl)-1H-1,2,4-triazole-5-carboxamide], for which, on human V1a receptor, the IC50 worked out at 38.6 nM and the “ratio IC50 hV2/hV1a” value was 0.6. For the same molecule, at human V2 receptor, the IC50 was 23.4 nM.
Consider `O=C(NCC(F)(F)F)c1nc(Cn2nc(-c3ccc(Cl)cc3)n(C[C@H](O)C(F)(F)F)c2=O)nn1-c1cccc(F)c1` [Example 38, 3-({3-(4-Chlorophenyl)-5-oxo-4-[(2S)-3,3,3-trifluoro-2-hydroxypropyl]-4,5-dihydro-1H-1,2,4-triazol-1-yl}methyl)-1-(3-fluorophenyl)-N-(2,2,2-trifluoroethyl)-1H-1,2,4-triazole-5-carboxamide], for which, at human V1a receptor, the IC50 turned out to be 9.66 nM and the “ratio IC50 hV2/hV1a” value is recorded as 1.2. Further, the IC50 on human V2 receptor is 11.4 nM.
Turning to `O=C(NC1CC1)c1nc(Cn2nc(-c3ccc(Cl)cc3)n(C[C@H](O)C(F)(F)F)c2=O)nn1-c1cccc(F)c1` [Example 39, 3-({3-(4-Chlorophenyl)-5-oxo-4-[(2S)-3,3,3-trifluoro-2-hydroxypropyl]-4,5-dihydro-1H-1,2,4-triazol-1-yl}methyl)-N-cyclopropyl-1-(3-fluorophenyl)-1H-1,2,4-triazole-5-carboxamide], on human V1a receptor, the IC50 was determined as 47 nM and the “ratio IC50 hV2/hV1a” value was determined as 0.6. Also, the IC50 on human V2 receptor worked out at 28.1 nM.
On to `CC(C)(C)OC(=O)N1CCN(C(=O)c2nc(Cn3nc(-c4ccc(Cl)cc4)n(C[C@H](O)C(F)(F)F)c3=O)nn2-c2cccc(F)c2)CC1` [Example 40, tert-Butyl 4-{[3-({3-(4-chlorophenyl)-5-oxo-4-[(2S)-3,3,3-trifluoro-2-hydroxypropyl]-4,5-dihydro-1H-1,2,4-triazol-1-yl}methyl)-1-(3-fluorophenyl)-1H-1,2,4-triazol-5-yl]carbonyl}piperazine-1-carboxylate], for which the IC50 came to 131 nM at human V1a receptor and 98.7 nM at human V2 receptor. Further, the “ratio IC50 hV2/hV1a” value at human V1a receptor stood at 0.8.
With `O=C(c1nc(Cn2nc(-c3ccc(Cl)cc3)n(C[C@H](O)C(F)(F)F)c2=O)nn1-c1cccc(F)c1)N1CCNCC1` [Example 41, 5-(4-Chlorophenyl)-2-{[1-(3-fluorophenyl)-5-(piperazin-1-ylcarbonyl)-1H-1,2,4-triazol-3-yl]methyl}-4-[(2S)-3,3,3-trifluoro-2-hydroxypropyl]-2,4-dihydro-3H-1,2,4-triazol-3-one trifluoroacetate], on human V1a receptor, the IC50 amounted to 19.3 nM and the “ratio IC50 hV2/hV1a” value is 7.4. The IC50 at human V2 receptor stood at 141 nM.
Take `CNC(=O)c1nc(Cn2nc(-c3ccc(Cl)cc3)n(C[C@H](O)C(F)(F)F)c2=O)nn1-c1ccccc1OC` [Example 42, 3-({3-(4-Chlorophenyl)-5-oxo-4-[(2S)-3,3,3-trifluoro-2-hydroxypropyl]-4,5-dihydro-1H-1,2,4-triazol-1-yl}methyl)-1-(2-methoxyphenyl)-N-methyl-1H-1,2,4-triazole-5-carboxamide]: at human V1a receptor, the IC50 came to 1.12 nM and the “ratio IC50 hV2/hV1a” value worked out at 7.4. Further, the IC50 at human V2 receptor is 8.29 nM.
Taken in the same sequence, the figures for `CNC(=O)c1nc(Cn2nc(-c3ccc(Cl)cc3)n(C[C@H](O)C(F)(F)F)c2=O)nn1-c1ccccc1Cl` [Example 43, 1-(2-Chlorophenyl)-3-({3-(4-chlorophenyl)-5-oxo-4-[(2S)-3,3,3-trifluoro-2-hydroxypropyl]-4,5-dihydro-1H-1,2,4-triazol-1-yl}methyl)-N-methyl-1H-1,2,4-triazole-5-carboxamide] were 2.07 nM, 8.1 and 16.7 nM.
As for `CON(C)C(=O)c1nc(Cn2nc(-c3ccc(Cl)cc3)n(C[C@H](O)C(F)(F)F)c2=O)nn1-c1ccccc1Cl` [Example 44, 1-(2-Chlorophenyl)-3-({3-(4-chlorophenyl)-5-oxo-4-[(2S)-3,3,3-trifluoro-2-hydroxypropyl]-4,5-dihydro-1H-1,2,4-triazol-1-yl}methyl)-N-methoxy-N-methyl-1H-1,2,4-triazole-5-carboxamide], on human V1a receptor, the IC50 came to 1.21 nM and the “ratio IC50 hV2/hV1a” value amounted to 7.2. On human V2 receptor, the IC50 came out at 8.63 nM.

For the origin of these results see patent US11230540B2, “Substituted triazole derivatives and uses thereof” (Bayer Pharma Aktiengesellschaft, priority 2017, dated 2022).
